US10294212B2 (CURADEV PHARMA PRIVATE LTD., priority 2013, dated 2019)
Where a name gives a salt, the structure may show the parent alone.

Key:
[1] = target: Human TDO (hTDO)-transfected CHO-K1 cells (Homo sapiens (Human), UniProt P48775); assay: CHO-K1 cell based TDO assay; conditions: hTDO cellular assay
Procedure, shortened: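 Stably hTDO-expressing CHO-K1 cells were exposed to compounds (typically 31 μM to 10 nM) in HBSS with 80 μM L-tryptophan for 2 h. TCA-treated supernatant was heated at 65° C for 15 min to convert N-formylkynurenine, then kynurenine was quantified by LC/MS/MS. IC50 came from percent inhibition versus DMSO control.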

[2] = target: Human indoleamine 2,3-dioxygenase1 (hIDO1) (Homo sapiens (Human), UniProt P14902); assay: In-vitro IDO1 enzyme assay (conversion of L-tryptophan to KYN); type: biochemical; conditions: read-out: IC50 (IDO1) Enz
Procedure, shortened: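 His-tagged hIDO1 (10 nM, E. coli-expressed) incubated with 30 μM L-tryptophan, 20 mM ascorbate, 10 μM methylene blue and 100 μg/mL catalase in 50 mM potassium phosphate pH 6.5, 30 min at 37 °C. TCA stop, then 65 °C hydrolysis; KYN measured by HPLC-UV at 360 nm or LC/MS/MS. IC50 by nonlinear regression versus 1% DMSO control.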

[3] = target: IDO1 in HeLa cells (Homo sapiens (Human), UniProt P14902); assay: HeLa cell based IDO1 assay (IFNγ-induced, KYN in supernatant)
Procedure, shortened: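 HeLa cells were induced overnight with IFNγ (50 ng/mL), washed, then exposed to compound (typically 10 μM–1 nM) in HBSS with 80 μM L-tryptophan. Supernatant was TCA-treated at 65 °C for 15 min to convert N-formylkynurenine, and KYN was measured by HPLC-UV at 360 nm. IC50 came from nonlinear regression against a 1% DMSO control.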

IDO1 in HeLa cells, sequence (P14902 whole entry): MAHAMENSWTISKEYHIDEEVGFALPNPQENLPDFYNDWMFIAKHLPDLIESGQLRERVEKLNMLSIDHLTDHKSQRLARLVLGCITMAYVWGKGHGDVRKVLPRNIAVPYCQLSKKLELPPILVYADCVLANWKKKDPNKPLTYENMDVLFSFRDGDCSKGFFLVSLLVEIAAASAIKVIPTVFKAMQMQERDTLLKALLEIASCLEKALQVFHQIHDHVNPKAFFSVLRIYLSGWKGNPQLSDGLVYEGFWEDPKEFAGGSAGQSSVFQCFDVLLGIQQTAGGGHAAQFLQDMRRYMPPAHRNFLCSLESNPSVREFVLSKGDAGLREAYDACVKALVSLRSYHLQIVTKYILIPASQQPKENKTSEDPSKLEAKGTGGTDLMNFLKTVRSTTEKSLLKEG
Human indoleamine 2,3-dioxygenase1 (hIDO1), sequence (P14902 whole entry): as above
Human TDO (hTDO)-transfected CHO-K1 cells, sequence (P48775 whole entry): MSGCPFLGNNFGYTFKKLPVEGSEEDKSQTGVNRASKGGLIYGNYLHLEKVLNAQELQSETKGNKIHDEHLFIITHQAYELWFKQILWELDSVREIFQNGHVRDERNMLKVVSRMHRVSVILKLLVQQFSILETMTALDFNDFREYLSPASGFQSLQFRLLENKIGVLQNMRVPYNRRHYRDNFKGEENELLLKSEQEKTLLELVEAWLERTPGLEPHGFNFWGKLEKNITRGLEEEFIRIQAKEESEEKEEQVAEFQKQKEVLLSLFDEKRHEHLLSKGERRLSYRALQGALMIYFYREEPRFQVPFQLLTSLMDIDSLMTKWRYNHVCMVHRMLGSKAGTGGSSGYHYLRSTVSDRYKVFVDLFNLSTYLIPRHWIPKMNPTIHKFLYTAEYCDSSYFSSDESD

Work on `Nc1oc2c(-c3ccnc(C(=O)NCCN4CCOCC4)c3)nccc2c1Nc1ccc(F)c(Cl)c1` [Compound 274, 4-(2-Amino-3-((3-chloro-4-fluorophenyl)amino)furo[2,3-c]pyridin-7-yl)-N-(2-morpholinoethyl)picolinamide] yielded an IC50 [1] of 500 to 2000 nM, an IC50 [2] of less than 200 nM and an IC50 [3] of less than 200 nM.

Compound `Nc1sc2ccccc2c1Nc1cccc(C(F)(F)F)c1` [Compound 119, N^3-(3-(Trifluoromethyl)phenyl)benzo[b]thiophene-2,3-diamine] has an IC50 [1] greater than 2000 nM, an IC50 [2] of less than 200 nM and an IC50 [3] of less than 200 nM.

In the case of `N#Cc1nccc2c(Nc3ccc(F)c(C(F)(F)F)c3)c(N)oc12` [Compound 183, 2-Amino-3-((4-fluoro-3-(trifluoromethyl)phenyl)amino)furo[2,3-c]pyridine-7-carbonitrile], the IC50 [1] is reported as 500 to 2000 nM, the IC50 [2] is reported as less than 200 nM and the IC50 [3] is reported as less than 200 nM.

For `Nc1oc2c(-c3cc(F)ccc3Cl)nccc2c1Nc1ccc(F)c(Cl)c1` [Compound 276, N^3-(3-Chloro-4-fluorophenyl)-7-(2-chloro-5-fluorophenyl)furo[2,3-c]pyridine-2,3-diamine], the IC50 [1] was 500 to 2000 nM, the IC50 [2] was less than 200 nM and the IC50 [3] was less than 200 nM.

For `CC(C)(C)NC(=O)c1cc(-c2nccc3c(Nc4ccc(F)c(Cl)c4)c(N)oc23)ccn1` [Compound 251, 4-(2-Amino-3-((3-chloro-4-fluorophenyl)amino)furo[2,3-c]pyridin-7-yl)-N-(tert-butyl)picolinamide], the IC50 [1] was greater than 2000 nM, the IC50 [2] was less than 200 nM and the IC50 [3] was less than 200 nM.

`CNC(=O)c1cc(-c2nccc3c(Nc4ccc(F)c(Cl)c4)c(N)oc23)ccn1` [Compound 195, 4-(2-Amino-3-((3-chloro-4-fluorophenyl)amino)furo[2,3-c]pyridin-7-yl)-N-methylpicolinamide] showed an IC50 [1] of 500 to 2000 nM, an IC50 [2] of less than 200 nM and an IC50 [3] of less than 200 nM.

For `CCCNC(=O)c1cc(-c2nccc3c(Nc4ccc(F)c(Cl)c4)c(N)oc23)ccn1` [Compound 253, 4-(2-Amino-3-((3-chloro-4-fluorophenyl)amino)furo[2,3-c]pyridin-7-yl)-N-propylpicolinamide], the IC50 [1] was greater than 2000 nM, the IC50 [2] was less than 200 nM and the IC50 [3] was less than 200 nM.

Compound `N#Cc1cccc(Nc2c(N)oc3cnccc23)c1` [Compound 99, 3-((2-Aminofuro[2,3-c]pyridin-3-yl)amino)benzonitrile] has an IC50 [1] greater than 2000 nM, an IC50 [2] greater than 1000 nM and an IC50 [3] of less than 200 nM.

Compound `Cc1ccc2sc(N)c(Nc3ccc(F)c(Cl)c3)c2c1` [Compound 214, N^3-(3-Chloro-4-fluorophenyl)-5-methylbenzo[b]thiophene-2,3-diamine] has an IC50 [1] greater than 2000 nM, an IC50 [2] of 200 to 1000 nM and an IC50 [3] of less than 200 nM.

`C#Cc1cc(Nc2c(N)oc3c(-c4ccncc4)nccc23)ccc1F` [Compound 111, N^3-(3-Ethynyl-4-fluorophenyl)-7-(pyridin-4-yl)furo[2,3-c]pyridine-2,3-diamine] gave an IC50 [1] of 500 to 2000 nM, an IC50 [2] of less than 200 nM and an IC50 [3] of less than 200 nM.

`Nc1oc2cnc(F)cc2c1Nc1ccc(F)c(F)c1` [Compound 216, N^3-(3,4-difluorophenyl)-5-fluorofuro[2,3-c]pyridine-2,3-diamine] gave an IC50 [1] of less than 500 nM, an IC50 [2] of less than 200 nM and an IC50 [3] of less than 200 nM.

Compound `Nc1oc2c(-c3ccncc3)nccc2c1Nc1ccc(F)c(C(F)(F)F)c1` [Compound 192, N^3-(4-Fluoro-3-(trifluoromethyl)phenyl)-7-(pyridin-4-yl)furo[2,3-c]pyridine-2,3-diamine] has an IC50 [1] of 500 to 2000 nM, an IC50 [2] of less than 200 nM and an IC50 [3] of less than 200 nM.

In the case of `Cc1cc(-c2nc(F)cc3c(Nc4cccc(Cl)c4)c(N)oc23)ccn1` [Compound 254, N^3-(3-Ahlorophenyl)-5-fluoro-7-(2-methylpyridin-4-yl)furo[2,3-c]pyridine-2,3-diamine], the IC50 [1] is reported as 500 to 2000 nM, the IC50 [2] is reported as less than 200 nM and the IC50 [3] is reported as less than 200 nM.

`Nc1oc2c(-c3ccccc3Cl)nccc2c1Nc1ccc(F)c(F)c1` [Compound 197, 7-(2-Chlorophenyl)-N^3-(3,4-difluorophenyl)furo[2,3-c]pyridine-2,3-diamine] was tested, and the IC50 [1] was less than 500 nM, the IC50 [2] was less than 200 nM and the IC50 [3] was less than 200 nM.

`Cc1cc(-c2nccc3c(Nc4ccc(F)c(F)c4)c(N)oc23)ccn1` [Compound 198, N^3-(3,4-Difluorophenyl)-7-(2-methylpyridin-4-yl)furo[2,3-c]pyridine-2,3-diamine] gave an IC50 [1] of less than 500 nM, an IC50 [2] of less than 200 nM and an IC50 [3] of less than 200 nM.

Compound `Nc1sc2c(Br)cccc2c1Nc1ccc(F)c(Cl)c1` [Compound 210, 7-Bromo-N^3-(3-chloro-4-fluorophenyl)benzo[b]thiophene-2,3-diamine hydrochloride] has an IC50 [1] of 500 to 2000 nM, an IC50 [2] of less than 200 nM and an IC50 [3] of 200 to 1000 nM.

`N#Cc1ccc2c(Nc3ccccc3Cl)c(N)oc2c1` [Compound 116, 2-Amino-3-((2-chlorophenyl)amino)benzofuran-6-carbonitrile] showed an IC50 [1] greater than 2000 nM, an IC50 [2] greater than 1000 nM and an IC50 [3] of 200 to 1000 nM.

For `Cc1cc(Nc2c(N)oc3cnccc23)ccc1F` [Compound 27, N^3-(4-Fluoro-3-methylphenyl)furo[2,3-c]pyridine-2,3-diamine], the IC50 [1] was 500 to 2000 nM, the IC50 [2] was less than 200 nM and the IC50 [3] was less than 200 nM.

`Nc1oc2c(-c3ccncc3)nccc2c1Nc1ccccc1Cl` [Compound 202, N^3-(2-Chlorophenyl)-7-(pyridin-4-yl)furo[2,3-c]pyridine-2,3-diamine] was tested, and the IC50 [1] was 500 to 2000 nM, the IC50 [2] was less than 200 nM and the IC50 [3] was less than 200 nM.

In the case of `CC(C)c1nccc2c(Nc3ccc(F)c(Cl)c3)c(N)oc12` [Compound 83, N^3-(3-Chloro-4-fluorophenyl)-7-isopropylfuro[2,3-c]pyridine-2,3-diamine], the IC50 [1] is reported as 500 to 2000 nM, the IC50 [2] is reported as less than 200 nM and the IC50 [3] is reported as less than 200 nM.

In the case of `Cc1cc(C)cc(Nc2c(N)oc3cnccc23)c1` [Compound 14, N^3-(3,5-Dimethylphenyl)furo[2,3-c]pyridine-2,3-diamine], the IC50 [1] is reported as 500 to 2000 nM, the IC50 [2] is reported as 200 to 1000 nM and the IC50 [3] is reported as less than 200 nM.

In the case of `Nc1sc2ccc(Br)cc2c1Nc1ccc(F)c(Cl)c1` [Compound 123, 5-Bromo-N^3-(3-chloro-4-fluorophenyl)benzo[b]thiophene-2,3-diamine], the IC50 [1] is reported as greater than 2000 nM, the IC50 [2] is reported as less than 200 nM and the IC50 [3] is reported as 200 to 1000 nM.

With `Nc1oc2c(-c3cc(F)cc(F)c3)nccc2c1Nc1ccc(F)c(Cl)c1` [Compound 278, N^3-(3-Chloro-4-fluorophenyl)-7-(3,5-difluorophenyl)furo[2,3-c]pyridine-2,3-diamine] the IC50 [1] was 500 to 2000 nM, the IC50 [2] was less than 200 nM and the IC50 [3] was less than 200 nM.

For `Nc1sc2ccccc2c1Nc1ccc(F)cc1` [Compound 231, N^3-(4-Fluorophenyl)benzo[b]thiophene-2,3-diamine], the IC50 [1] was greater than 2000 nM, the IC50 [2] was 200 to 1000 nM and the IC50 [3] was 200 to 1000 nM.

Work on `Cc1ccc(Nc2c(N)oc3cnccc23)cc1Cl` [Compound 33, N^3-(3-Chloro-4-methylphenyl)furo[2,3-c]pyridine-2,3-diamine] yielded an IC50 [1] of 500 to 2000 nM, an IC50 [2] of less than 200 nM and an IC50 [3] of less than 200 nM.

In the case of `Nc1oc2c(-c3ccccc3)nccc2c1Nc1ccc(F)c(Cl)c1` [Compound 81, N^3-(3-Chloro-4-fluorophenyl)-7-phenylfuro[2,3-c]pyridine-2,3-diamine], the IC50 [1] is reported as less than 500 nM, the IC50 [2] is reported as less than 200 nM and the IC50 [3] is reported as less than 200 nM.

`CCOC(=O)Nc1oc2c(-c3ccnc(C)c3)nccc2c1N(C(=O)OCC)c1ccc(F)c(Cl)c1` [Compound 269, Ethyl (3-chloro-4-fluorophenyl)(2-((ethoxycarbonyl)amino)-7-(2-methylpyridin-4-yl)furo[2,3-c]pyridin-3-yl)carbamate] gave an IC50 [1] greater than 2000 nM, an IC50 [2] greater than 1000 nM and an IC50 [3] greater than 1000 nM.

Work on `COc1cncc2oc(N)c(Nc3ccc(F)c(Cl)c3)c12` [Compound 67, N^3-(3-Chloro-4-fluoro-phenyl)-4-methoxy-furo[2,3-c]pyridine-2,3-diamine] yielded an IC50 [1] of 500 to 2000 nM, an IC50 [2] greater than 1000 nM and an IC50 [3] of less than 200 nM.

`CCc1cc2c(Nc3ccc(F)c(Cl)c3)c(N)oc2c(-c2ccccc2)n1` [Compound 109, N^3-(3-chloro-4-fluorophenyl)-5-ethyl-7-phenylfuro[2,3-c]pyridine-2,3-diamine] showed an IC50 [1] greater than 2000 nM, an IC50 [2] of 200 to 1000 nM and an IC50 [3] of 200 to 1000 nM.

In the case of `N#Cc1ccc(-c2nccc3c(Nc4ccc(F)c(Cl)c4)c(N)oc23)cc1` [Compound 149, 4-(2-Amino-3-((3-chloro-4-fluorophenyl)amino)furo[2,3-c]pyridin-7-yl)benzonitrile], the IC50 [1] is reported as 500 to 2000 nM, the IC50 [2] is reported as less than 200 nM and the IC50 [3] is reported as less than 200 nM.

In the case of `C#Cc1cccc(Nc2c(N)oc3c(C)nccc23)c1` [Compound 93, N^3-(3-ethynylphenyl)-7-methylfuro[2,3-c]pyridine-2,3-diamine], the IC50 [1] is reported as 500 to 2000 nM, the IC50 [2] is reported as 200 to 1000 nM and the IC50 [3] is reported as less than 200 nM.

For `Cc1cc(-c2nccc3c(Nc4ccc(F)cc4F)c(N)oc23)ccn1` [Compound 256, N^3-(2,4-Difluorophenyl)-7-(2-methylpyridin-4-yl)furo[2,3-c]pyridine-2,3-diamine], the IC50 [1] was less than 500 nM, the IC50 [2] was less than 200 nM and the IC50 [3] was less than 200 nM.

`Cc1cc(-c2nccc3c(Nc4cccc(Cl)c4F)c(N)oc23)ccn1` [Compound 264, N^3-(3-Chloro-2-fluorophenyl)-7-(2-methylpyridin-4-yl)furo[2,3-c]pyridine-2,3-diamine] was tested, and the IC50 [1] was greater than 2000 nM, the IC50 [2] was 200 to 1000 nM and the IC50 [3] was less than 200 nM.
